Source: a melting point compilation (Tetko et al.)

Row | melting point [°C] | Compound
1 | 337 to 339 | Cc1[nH]nc2ncc(C(=O)O)cc12
2 | 153 to 155 | COc1ccccc1N(C)S(=O)(=O)c1ccc(C)c(C(=O)O)c1
3 | 261 to 263 | O=C1CCc2cc(C(=O)O)ccc2N1
4 | 234 to 236 | COc1ccc(-n2cc(O)c(C(=O)O)n2)cc1
5 | 70 to 72 | O=S(=O)(Cl)Cc1c(Cl)cccc1Cl
6 | 229 to 231 | CC1=NN(c2ccc(Cl)nn2)C(=O)C1
7 | 71 to 75 | COc1ccccc1C(=O)CC#N
8 | 158 to 160 | COC(=O)[C@@H]1C[C@@H](O)CN1C(=O)C12CC3CC(CC(C3)C1)C2
9 | 84 to 86 | COc1ccc(S(=O)(=O)Cl)c(C)c1C
10 | 117 to 119 | Cc1nc(-c2ccccc2)sc1N
11 | 115 to 117 | Cc1ccc(C(=O)N(C)c2ccc(O)cc2)cc1
12 | 110 to 112 | O=C(O)CCc1cc2ccccc2o1
13 | 62 to 64 | CC(C)(C)OC(=O)C(C#N)c1nccnc1Cl (centres undefined)
14 | 254 to 256 | O=c1oc2ccccc2nc1NO
15 | 208 to 210 | Cc1cc2c(cc1Br)NC(=O)C(C)O2 (centres undefined)
16 | 125 to 127 | Nc1cccc(C(=O)N2CCc3ccccc32)c1
17 | 111 to 113 | Clc1nc(-c2ccccc2)c2ccccc2n1
18 | 189 to 191 | COc1ccc(NC(=O)c2ccc(CCl)cc2)cc1
19 | 86 to 88 | COc1ccc(NC(=O)OCC(F)(F)F)cn1
20 | 150 to 152 | NC(=O)Cn1cc(NC(=O)OCC(F)(F)F)cn1
21 | 58 to 60 | O=C(O)c1ccccc1N1CCOCC1
22 | 235 to 237 | COc1ccccc1Nc1nc2sc(C(=O)O)cc2s1
23 | 108 to 110 | CNc1ncccc1N
24 | 82 to 84 | CN(CCO)c1ccc(N)nc1
25 | 37 to 39 | CCC(=O)Cc1ccc(Cl)cc1Cl

Row | melting point [°C] | Compound
26 | 159 to 161 | Cc1cccc(Nc2nnc(SCC(=O)O)s2)c1C
27 | 244 to 246 | O=C(O)c1ccc(S(=O)(=O)C(F)(F)F)cc1
28 | 61 to 63 | CCOC(C)c1nc(C(=O)O)cs1 (centres undefined)
29 | 271 to 273 | Cc1ccc(CNc2ccc3[nH]c(=O)[nH]c3c2)cc1
30 | 159 to 161 | Cc1ccc(-c2cnc(CCC(=O)O)o2)cc1C
31 | 160 to 162 | Sc1nnc(Nc2ccccc2)s1
32 | 204 to 206 | CCN(CC)S(=O)(=O)c1ccc(N2CCC(C(=O)O)CC2)c([N+](=O)[O-])c1
33 | 140 to 142 | NNC(=O)c1cccc(S(=O)(=O)N2CCOCC2)c1
34 | 76 to 78 | CSc1cccc(NC2CCN(C)CC2)c1
35 | 74 to 76 | NCc1ccc(N2CC=CC2)cc1
36 | 118 to 120 | OCc1sc(N2CCOCC2)nc1-c1ccccc1
37 | 66 to 68 | CC(Cl)C(=O)NCc1ccccc1F (centres undefined)
38 | 66 to 68 | CC(CC(=O)O)c1ccc(F)cc1F (centres undefined)
39 | 65 to 67 | O=C1OCC(c2ccc(Cl)cc2)=C1c1cccs1
40 | 192 to 193 | CC(=O)c1cnc2nncn2c1C
41 | 162 to 164 | CC(=O)c1ccc2c(c1)CCC(=O)N2
42 | 219 to 221 | N#Cc1cc(S(N)(=O)=O)ccc1Cl
43 | 208 to 210 | O=C(O)CC(O)(c1ncc[nH]1)C(F)(F)F (centres undefined)
44 | 83 to 85 | O=C1CNCCN1Cc1ccc(Cl)cc1
45 | 62 to 64 | Cc1cccc(NC(=O)[C@@H]2CCCN2)n1
46 | 179 to 181 | Sc1nnc(-c2ccc3c(c2)OCO3)o1
47 | 116 to 118 | NC(=NO)C1CN(Cc2ccccc2)CCO1 (centres undefined)
48 | 109 to 112 | Nc1ccccc1C(=O)Nc1ccc(F)cc1
49 | 151 to 153 | Cc1cc(CC(=O)NN)[nH]n1
50 | 156 to 158 | COCCc1nnc(-c2cccc(C(=O)O)c2)o1

Row | melting point [°C] | Compound
51 | 92 to 94 | Cc1ccccc1OCCC(=O)O
52 | 150 to 152 | O=C(O)c1c[nH]cc1C1CC1
53 | 175 to 177 | Nc1nncc(-c2cc(Cl)ccc2Cl)n1
54 | 238 to 240 | Cc1ccc(-c2nn(-c3ccccc3)cc2/C=C/C(=O)O)o1
55 | 181 to 183 | Cc1ccc(C(=O)O)cc1S(=O)(=O)Nc1cc(Cl)ccc1F
56 | 49 to 51 | COC(=O)c1cc(OC)ccc1S(=O)(=O)Cl
57 | 98 to 100 | CC(C)(C)OC(=O)N1CCC(CC(=O)O)CC1
58 | 133 to 135 | CC(=O)c1ccc(-c2ccc(C=O)o2)cc1
59 | 169 to 171 | O=C(O)CNC(=O)c1ccc(F)cc1
60 | 181 to 183 | NS(=O)(=O)c1ccc(N2CCC(C(=O)O)CC2)c([N+](=O)[O-])c1
61 | 210 to 212 | Cn1cc(C(=O)O)c(C(F)(F)F)n1
62 | 67 to 69 | COCCOc1ccc(C=O)cc1OC
63 | 123 to 125 | CCOC(=O)/C(=C(/O)C(C)Cl)c1nc(C)cs1 (centres undefined)
64 | 83 to 85 | O=C(O)CN1C(=O)C2CC=CCC2C1=O (centres undefined)
65 | 189 to 191 | COc1ccc2c(CCl)cc(=O)oc2c1
66 | 63 to 65 | c1ccc(Cn2ccnc2)nc1
67 | 146 to 148 | NC(=S)c1cc2ccccc2o1
68 | 146 to 148 | Nc1ccc(N2CCCCC2)c(S(=O)(=O)Nc2ccccc2Cl)c1
69 | 143 to 145 | CCc1ccc(OCc2nnc(S)n2C(C)c2ccccc2)cc1 (centres undefined)
70 | 168 to 170 | CC1(C)CC(=O)c2ccc(O)cc2O1
71 | 114 to 116 | Nc1cc(-c2c(F)cccc2F)no1
72 | 249 to 251 | Nc1cc(F)c([N+](=O)[O-])cc1C(=O)O
73 | 186 to 188 | CS(=O)(=O)Cc1ccc(C(=O)O)o1
74 | 134 to 136 | O=C1CNC(=O)N1CCBr
75 | 259 to 261 | O=c1[nH]c(CCl)nc2c1cnn2-c1ccccc1

Row | melting point [°C] | Compound
76 | 45 to 49 | CCOCCCNC(=O)CC#N
77 | 48 to 50 | Cc1cc(S(=O)(=O)Cl)ccc1[N+](=O)[O-]
78 | 147 to 149 | Nc1cccc2c1C(=O)N(Cc1ccccc1)C2=O
79 | 97 to 99 | COC(=O)c1ccccc1S(=O)(=O)Nc1ccccc1Cl
80 | 95 to 97 | CC(C)(C)c1cc(NC(=O)CCl)on1
81 | 162 to 164 | Cc1ccc(S(=O)(=O)NC(C)C)cc1C(=O)O
82 | 96 to 98 | Cc1ccc(N)c(C)c1S(=O)(=O)NC1CC1
83 | 106 to 108 | CN(C)C(=O)c1ccc(Cl)c(S(=O)(=O)Cl)c1
84 | 276 to 278 | Cc1nc(S)nc(O)c1C
85 | 137 to 139 | Cc1cc(F)cc2c(Cl)c(C#N)cnc12
86 | 109 to 111 | CS(=O)c1ccc(N)cc1F (centres undefined)
87 | 197 to 199 | O=C(O)c1cccc(NS(=O)(=O)c2cccs2)c1
88 | 118 to 120 | C=CC(=O)NCc1ccc(F)cc1
89 | 129 to 131 | Nc1ccc(CN2C(=O)Cc3ccc(Cl)cc32)cc1
90 | 246 to 248 | O=C1NC(=O)C2(CC(C(=O)O)C2)N1 (centres undefined)
91 | 122 to 124 | Cc1cc(S(C)(=O)=O)c(C)c(S(=O)(=O)Cl)c1
92 | 179 to 181 | CC(C)(c1cc(N)on1)S(C)(=O)=O
93 | 214 to 216 | N#CCOc1ccc(/C=C/C(=O)O)cc1
94 | 162 to 164 | CC(C)CCNC(=O)C1CSCN1 (centres undefined)
95 | 107 to 109 | C#CCNC(=O)c1cccnc1Cl
96 | 109 to 111 | ClCc1nnc(-c2ccc(Br)s2)o1
97 | 129 to 131 | CCN(CC)S(=O)(=O)c1ccc(O)c(C(=O)O)c1
98 | 133 to 135 | O=C(O)CCC(NC(=O)c1ccccc1)C(=O)O (centres undefined)

Row | Compound | melting point [°C]
99 | Fc1cccc2c(CBr)csc12 | 74 to 76
